# Source: patent US7368578B2, “Five-membered heterocyclic compounds” (Takeda Pharmaceutical Company Limited, priority 2002, dated 2008)
row,SMILES,melting point [°C]
1,"CCOc1cc(COc2nn(-c3ccccc3)cc2C=O)ccc1OCc1nc(-c2ccco2)oc1C [Example 154, 3-[(3-ethoxy-4-{[2-(2-furyl)-5-methyl-1,3-oxazol-4-yl]methoxy}benzyl)oxy]-1-phenyl-1H-pyrazole-4-carbaldehyde]",149 to 150
2,"CCCC(=O)/C=C/c1cn(-c2ccccc2)nc1OCc1ccc(OCc2nc(-c3ccco3)oc2C)c(OC)c1 [Example 157, (1E)-1-{3-[(4-{[2-(2-furyl)-5-methyl-1,3-oxazol-4-yl]methoxy}-3-methoxybenzyl)oxy]-1-phenyl-1H-pyrazol-4-yl}-1-hexen-3-one]",167 to 168
3,"COc1cc(COc2nn(-c3ccccc3)cc2/C=C/C(=O)N(C)OC)ccc1OCc1nc(-c2ccco2)oc1C [Example 162, (2E)-3-{3-[(4-{[2-(2-furyl)-5-methyl-1,3-oxazol-4-yl]methoxy}-3-methoxybenzyl)oxy]-1-phenyl-1H-pyrazol-4-yl}-N-methoxy-N-methyl-2-propenamide]",173 to 174
4,"COC(=O)c1cc(COc2nn(-c3ccccc3)cc2C=O)ccc1OCc1nc(-c2ccco2)oc1C [Example 163, methyl 5-{[(4-formyl-1-phenyl-1H-pyrazol-3-yl)oxy]methyl}-2-{[2-(2-furyl)-5-methyl-1,3-oxazol-4-yl]methoxy}benzoate]",173 to 174
5,"Cc1oc(-c2ccco2)nc1COc1ccc(COc2nn(-c3ccccc3)cc2C=O)cn1 [Example 164, 3-[(6-{[2-(2-furyl)-5-methyl-1,3-oxazol-4-yl]methoxy}pyridin-3-yl)methoxy]-1-phenyl-1H-pyrazole-4-carbaldehyde]",122 to 123
6,"CCOC(=O)c1cn(CC)nc1OCc1ccc(OCc2nc(-c3ccco3)oc2C)c(OC)c1 [Example 172, ethyl 1-ethyl-3-[(4-{[2-(2-furyl)-5-methyl-1,3-oxazol-4-yl]methoxy}-3-methoxybenzyl)oxy]-1H-pyrazole-4-carboxylate]",114 to 115
7,"COc1cc(COc2nn(CCO)cc2CO)ccc1OCc1nc(-c2ccco2)oc1C [Example 176, 2-[3-[(4-{[2-(2-furyl)-5-methyl-1,3-oxazol-4-yl]methoxy}-3-methoxybenzyl)oxy]-4-(hydroxymethyl)-1H-pyrazol-1-yl]ethanol]",120 to 122
8,"CCOC(=O)c1csc(/C=C/c2cn(-c3ccccc3)nc2OCc2ccc(OCc3nc(-c4ccco4)oc3C)c(OC)c2)n1 [Example 186, ethyl 2-((E)-2-{3-[(4-{[2-(2-furyl)-5-methyl-1,3-oxazol-4-yl]methoxy}-3-methoxybenzyl)oxy]-1-phenyl-1H-pyrazol-4-yl}ethenyl)-1,3-thiazole-4-carboxylate]",156 to 157
9,"COc1cc(COc2nn(-c3ccccc3)cc2/C=C/C(=O)NNC(C)=O)ccc1OCc1nc(-c2ccco2)oc1C [Example 189, (2E)-N′-acetyl-3-{3-[(4-{[2-(2-furyl)-5-methyl-1,3-oxazol-4-yl]methoxy}-3-methoxybenzyl)oxy]-1-phenyl-1H-pyrazol-4-yl}-2-propenohydrazide]",221 to 222
10,"CCc1nc(/C=C\c2cn(-c3ccccc3)nc2OCc2ccc(OCc3csc(N4CCCCC4)n3)c(OC)c2)cs1 [Example 193 (Z form), 1-[4-({4-[({4-[(Z)-2-(2-ethyl-1,3-thiazol-4-yl)ethenyl]-1-phenyl-1H-pyrazol-3-yl}oxy)methyl]-2-methoxyphenoxy}methyl)-1,3-thiazol-2-yl]piperidine]",93 to 94
11,"COc1cc(COc2nn(-c3ccccc3)cc2C=O)ccc1OCc1csc(N2CCCCC2)n1 [Example 196, 3-({3-methoxy-4-[(2-piperidin-1-yl-1,3-thiazol-4-yl)methoxy]benzyl}oxy)-1-phenyl-1H-pyrazole-4-carbaldehyde]",123 to 124
12,"COc1cc(COc2nn(-c3ccccc3)cc2C=O)ccc1OCc1csc(N2CCOCC2)n1 [Example 197, 3-({3-methoxy-4-[(2-morpholin-4-yl-1,3-thiazol-4-yl)methoxy]benzyl}oxy)-1-phenyl-1H-pyrazole-4-carbaldehyde]",128 to 129

# Now from value to compound:
row,melting point [°C],SMILES
1,132 to 133,"CCc1nc(/C=C\c2cn(-c3ccccc3)nc2OCc2ccc(OCc3nc(-c4ccco4)oc3C)c(OC)c2)cs1 [Example 152 (Z form), 4-({4-[({4-[(Z)-2-(2-ethyl-1,3-thiazol-4-yl)ethenyl]-1-phenyl-1H-pyrazol-3-yl}oxy)methyl]-2-methoxyphenoxy}methyl)-2-(2-furyl)-5-methyl-1,3-oxazole]"
2,177 to 178,"COc1cc(COc2nn(-c3ccccc3)cc2/C=C/C(C)=O)ccc1OCc1nc(-c2ccco2)oc1C [Example 155, (3E)-4-{3-[(4-{[2-(2-furyl)-5-methyl-1,3-oxazol-4-yl]methoxy}-3-methoxybenzyl)oxy]-1-phenyl-1H-pyrazol-4-yl}-3-buten-2-one]"
3,138 to 140,"COc1cc(COc2nn(-c3ccccc3)cc2/C=C/P(=O)(O)O)ccc1OCc1nc(-c2ccco2)oc1C [Example 158, (E)-2-{3-[(4-{[2-(2-furyl)-5-methyl-1,3-oxazol-4-yl]methoxy}-3-methoxybenzyl)oxy]-1-phenyl-1H-pyrazol-4-yl}ethenylphosphonic acid]"
4,135 to 136,"CCOC(=O)/C=C/c1cn(C)nc1OCc1ccc(OCc2nc(-c3ccco3)oc2C)c(OC)c1 [Example 165, ethyl (2E)-3-{3-[(4-([2-(2-furyl)-5-methyl-1,3-oxazol-4-yl]methoxy}-3-methoxybenzyl)oxy]-1-methyl-1H-pyrazol-4-yl)-2-propenoate]"
5,134 to 135,"COc1cc(COc2nn(C)cc2/C=C/c2cscn2)ccc1OCc1nc(-c2ccco2)oc1C [Example 167 (E form), 2-(2-furyl)-4-({2-methoxy-4-[({1-methyl-4-[(E)-2-(1,3-thiazol-4-yl)ethenyl]-1H-pyrazol-3-yl}oxy)methyl]phenoxy}methyl)-5-methyl-1,3-oxazole]"
6,97 to 98,"COc1cc(COc2nn(C)cc2/C=C\c2cscn2)ccc1OCc1nc(-c2ccco2)oc1C [Example 167 (Z form), 2-(2-furyl)-4-({2-methoxy-4-[({1-methyl-4-[(Z)-2-(1,3-thiazol-4-yl)ethenyl]-1H-pyrazol-3-yl}oxy)methyl]phenoxy}methyl)-5-methyl-1,3-oxazole]"
7,149 to 150,"CCOC(=O)/C=C/c1cn(CC)nc1OCc1ccc(OCc2nc(-c3ccco3)oc2C)c(OC)c1 [Example 168, ethyl (2E)-3-{1-ethyl-3-[(4-{[2-(2-furyl)-5-methyl-1,3-oxazol-4-yl]methoxy}-3-methoxybenzyl)oxy]-1H-pyrazol-4-yl}-2-propenoate]"
8,117 to 118,"CCOC(=O)c1cn(C)nc1OCc1ccc(OCc2nc(-c3ccco3)oc2C)c(OC)c1 [Example 171, ethyl 3-[(4-{[2-(2-furyl)-5-methyl-1,3-oxazol-4-yl]methoxy}-3-methoxybenzyl)oxy]-1-methyl-1H-pyrazole-4-carboxylate]"
9,155 to 156,"COc1cc(COc2nn(C)cc2C=O)ccc1OCc1nc(-c2ccco2)oc1C [Example 177, 3-[(4-{[2-(2-furyl)-5-methyl-1,3-oxazol-4-yl]methoxy}-3-methoxybenzyl)oxy]-1-methyl-1H-pyrazole-4-carbaldehyde]"
10,103 to 104,"CCn1cc(C=O)c(OCc2ccc(OCc3nc(-c4ccco4)oc3C)c(OC)c2)n1 [Example 178, 1-ethyl-3-[(4-{[2-(2-furyl)-5-methyl-1,3-oxazol-4-yl]methoxy}-3-methoxybenzyl)oxy]-1H-pyrazole-4-carbaldehyde]"
11,149 to 150,"COc1cc(COc2nn(CCO)cc2C=O)ccc1OCc1nc(-c2ccco2)oc1C [Example 179, 3-[(4-{[2-(2-furyl)-5-methyl-1,3-oxazol-4-yl]methoxy}-3-methoxybenzyl)oxy]-1-(2-hydroxyethyl)-1H-pyrazole-4-carbaldehyde]"
12,144 to 145,"COc1cc(COc2nn(-c3ccccc3)cc2/C=C/c2cncn2C)ccc1OCc1nc(-c2ccco2)oc1C [Example 181, 2-(2-furyl)-4-({2-methoxy-4-[({4-[(E)-2-(1-methyl-1H-imidazol-5-yl)ethenyl]-1-phenyl-1H-pyrazol-3-yl}oxy)methyl]phenoxy}methyl)-5-methyl-1,3-oxazole]"
13,130 to 132,"CCn1cncc1/C=C/c1cn(-c2ccccc2)nc1OCc1ccc(OCc2nc(-c3ccco3)oc2C)c(OC)c1 [Example 182, 4-({4-[({4-[(E)-2-(1-ethyl-1H-imidazol-5-yl)ethenyl]-1-phenyl-1H-pyrazol-3-yl}oxy)methyl]-2-methoxyphenoxy}methyl)-2-(2-furyl)-5-methyl-1,3-oxazole]"
14,129 to 131,"COc1cc(COc2nn(-c3ccccc3)cc2/C=C/C(N)=S)ccc1OCc1nc(-c2ccco2)oc1C [Example 184, (2E)-3-{3-[(4-{[2-(2-furyl)-5-methyl-1,3-oxazol-4-yl]methoxy}-3-methoxybenzyl)oxy]-1-phenyl-1H-pyrazol-4-yl}-2-propenethioamide]"
15,130 to 131,"COc1cc(COc2nn(-c3ccccc3)cc2/C=C/c2nc(C)cs2)ccc1OCc1nc(-c2ccco2)oc1C [Example 185, 2-(2-furyl)-4-({2-methoxy-4-[({4-[(E)-2-(4-methyl-1,3-thiazol-2-yl)ethenyl]-1-phenyl-1H-pyrazol-3-yl}oxy)methyl]phenoxy}methyl)-5-methyl-1,3-oxazole]"
16,170 to 172,"COc1cc(COc2nn(-c3ccccc3)cc2/C=C/c2nc(C(=O)O)cs2)ccc1OCc1nc(-c2ccco2)oc1C [Example 187, 2-((E)-2-{3-[(4-{[2-(2-furyl)-5-methyl-1,3-oxazol-4-yl]methoxy}-3-methoxybenzyl)oxy]-1-phenyl-1H-pyrazol-4-yl}ethenyl)-1,3-thiazole-4-carboxylic acid]"
17,165 to 166,"COc1cc(COc2nn(-c3ccccc3)cc2/C=C/c2nnc(C)[nH]2)ccc1OCc1nc(-c2ccco2)oc1C [Example 188, 3-((E)-2-{3-[(4-{[2-(2-furyl)-5-methyl-1,3-oxazol-4-yl]methoxy}-3-methoxybenzyl)oxy]-1-phenyl-1H-pyrazol-4-yl}ethenyl)-5-methyl-4H-1,2,4-triazole]"
